Data on 7 compounds can be found in US20260256925A1, “INDAZOLE DERIVATIVES AS ESTROGEN RECEPTOR DEGRADERS” (REGENTS OF THE UNIVERSITY OF MICHIGAN, priority 2022, published 2026).

One test addresses T1, ERα_LBD (GST) (Homo sapiens, UniProt P03372).
T1 construct: ERα_LBD (GST) protein: 4 nM; purchased ThermoFisher A15887
T1 sequence (P03372 311-547 limits assumed): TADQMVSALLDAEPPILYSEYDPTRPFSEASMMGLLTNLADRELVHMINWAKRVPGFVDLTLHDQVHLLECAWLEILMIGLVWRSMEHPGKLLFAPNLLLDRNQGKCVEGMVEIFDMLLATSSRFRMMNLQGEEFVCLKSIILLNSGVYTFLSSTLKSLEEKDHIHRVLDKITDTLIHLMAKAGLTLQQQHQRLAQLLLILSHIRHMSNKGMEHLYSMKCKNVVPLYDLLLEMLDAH
Briefly: IC50 measurements for binding to ERα_LBD (GST), LanthaScreen TR-FRET ERα competitive binding assay. The following applies: Fluormone ES2 Green tracer, 60 min, read-out: ERα HTRF IC50. How it is done:
In vitro Assay: IC50 Measurements for binding to ERα_LBD (GST)·
Final assay conditions: • 1. ERα_LBD (GST) protein: 4 nM • 2. Tb Anti-GST: 2 nM • 3. Fluormone ES2 Green tracer: 3 nM • 4. Incubation time: 60 min • 5. DMSO: 1% • 6. Assay buffer: Adding 1M DTT to Nuclear receptor Buffer K for final 5 mM DTT. • 7. ZPE: 1% DMSO • 8. HPE: 1 μM ARV_471 • 9. LanthaScreen® TR-FRET ERα Competitive Binding Assay (ThermoFisher, #A^15887)
100× Compound preparation: • 1) Cherry pick 2 μL 10 mM compound stock to column 1 of a 384 intermediate plate • 2) Add 18 μL DMSO to column 1 to dilute compound to 1 mM. • 3) Transfer 10 μL 1 mM compound to column 1 of a LDV plate. • 2) Add 6 μl DMSO to column 2-10 of the LDV plate. • 3) Compounds undergo 3-fold serial dilution (3 μL+6 μL) in DMSO. • 4) Transfer 120 nL compound solution to assay plate.
Prepare complete nuclear receptor buffer K by adding 1 M DTT to nuclear receptor buffer K for a final concentration of 5 mM DTT. Complete nuclear receptor buffer K must be prepared fresh daily. Prepare 2× protein solution using complete nuclear receptor buffer K containing 8 nM ERα_LBD (GST) and 4 nM Tb Anti-GST. Then, prepare 2× Fluormone ES2 Green tracer (6 nM) using complete nuclear receptor buffer K. Add 6 μL 2× Fluormone ES2 green tracer into a compound plate (PerkinElmer 6008289) by dragonfly with one-tips-addition. Subsequently, add 6 μL 2× protein solution into the plate. Briefly and gently mix the 384-well plate on a plate shaker and incubate at room temperature protected from light for 60 min. The plate is sealed with a cover to minimize evaporation. Read the plate at wavelengths of 520 nm and 495 nm. Calculate the TR-FRET ratio by dividing the emission signal at 520 nm by the emission signal at 495 nm. Generate a binding curve by plotting the emission ratio vs. the log [ligand]. To determine the IC50 value, fit the data using XL-fit for a sigmoidal dose-response.
(In general: Time-resolved FRET reads energy transfer from a long-lived donor to a nearby acceptor.)

Test [1] concerns the target T2, ER (Homo sapiens, UniProt P03372).
T2 construct: endogenous in cells; probably T47D or MCF-7
T2 sequence (P03372 1-595): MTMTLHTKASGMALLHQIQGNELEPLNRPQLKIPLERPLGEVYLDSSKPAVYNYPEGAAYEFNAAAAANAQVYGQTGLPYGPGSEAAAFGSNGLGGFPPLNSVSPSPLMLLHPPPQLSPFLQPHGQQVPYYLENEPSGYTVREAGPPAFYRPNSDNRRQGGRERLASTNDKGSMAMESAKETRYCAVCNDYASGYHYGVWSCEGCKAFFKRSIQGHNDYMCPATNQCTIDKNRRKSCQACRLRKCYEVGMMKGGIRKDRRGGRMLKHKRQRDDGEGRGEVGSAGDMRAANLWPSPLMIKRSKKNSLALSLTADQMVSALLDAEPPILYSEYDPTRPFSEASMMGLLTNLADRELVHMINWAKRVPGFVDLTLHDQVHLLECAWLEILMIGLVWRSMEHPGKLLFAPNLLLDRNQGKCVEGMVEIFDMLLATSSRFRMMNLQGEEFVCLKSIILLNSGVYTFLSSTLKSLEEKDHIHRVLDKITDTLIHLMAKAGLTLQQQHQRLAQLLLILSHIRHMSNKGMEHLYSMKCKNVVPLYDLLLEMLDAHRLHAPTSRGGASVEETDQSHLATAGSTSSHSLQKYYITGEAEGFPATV
In words: In-cell Western (ICW) ER degradation assay in MCF-7 cells. It counts as cell-based. To be noted: for DC50: read-out: ER MCF7 ICW DC50.

The target of test [2] is T2, ER. Briefly: In-cell Western (ICW) ER degradation assay in T47D cells. In kind it is cell-based. To be noted: for Dmax: T47D, read-out: ER T47D ICW Dmax (%).
A further test deals with T47D cells. In words: CellTiter-Glo (CTG) cell proliferation assay in T47D cells. It counts as cell-based. To be noted: Homo sapiens, 144 h, Day 6. The text has this:
(§1) CellTiter-Glo® (CTG) assays in MCF-7 and T47D cell lines.
(§2) In vitro Assay: MCF-7 and T47D CTG assay
(In general: Cellular ATP, detected with luciferase, serves as a proxy for viable cell number.)

In another test the test system is MCF-7 cells. Briefly: CellTiter-Glo (CTG) cell proliferation assay in MCF-7 cells. It counts as cell-based. The following applies: Homo sapiens, MCF7, 144 h, Day 6.
Source text: as §1, §2

For the next test, the target named is T3, CRBN/DDB1 (Homo sapiens, UniProt Q96SW2).
T3 construct: purchased Wuxi RP210521GA
It counts as binding. To be noted: HTRF, Cy5-labeled Thalidomide probe. How it is done:
The binding potency was determined using HTRF assay technology (Perkin Elmer). Compounds were serially diluted in DMSO and 0.2 μL volume was transferred to white 384-well plate.

The mark [3] stands for this setting: MCF7, read-out: ER MCF7 ICW Dmax (%).

One may read the IC50 as the concentration at which inhibition is half-maximal. By Dmax is commonly meant the greatest extent of degradation seen. The term DC50 denotes the concentration giving 50% degradation.

T3 sequence (Q96SW2 whole entry): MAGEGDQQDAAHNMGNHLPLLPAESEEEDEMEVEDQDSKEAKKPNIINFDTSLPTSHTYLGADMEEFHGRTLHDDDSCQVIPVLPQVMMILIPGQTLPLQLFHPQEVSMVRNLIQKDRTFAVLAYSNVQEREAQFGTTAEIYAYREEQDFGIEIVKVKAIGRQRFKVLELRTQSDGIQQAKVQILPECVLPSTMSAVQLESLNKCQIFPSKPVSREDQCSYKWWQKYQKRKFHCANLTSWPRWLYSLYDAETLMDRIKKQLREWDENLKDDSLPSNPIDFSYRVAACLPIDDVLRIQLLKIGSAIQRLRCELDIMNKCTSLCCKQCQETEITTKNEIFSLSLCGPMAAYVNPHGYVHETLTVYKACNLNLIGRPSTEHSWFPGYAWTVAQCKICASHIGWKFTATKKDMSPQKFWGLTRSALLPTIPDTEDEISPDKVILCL
T3 sequence (Q16531 whole entry partner): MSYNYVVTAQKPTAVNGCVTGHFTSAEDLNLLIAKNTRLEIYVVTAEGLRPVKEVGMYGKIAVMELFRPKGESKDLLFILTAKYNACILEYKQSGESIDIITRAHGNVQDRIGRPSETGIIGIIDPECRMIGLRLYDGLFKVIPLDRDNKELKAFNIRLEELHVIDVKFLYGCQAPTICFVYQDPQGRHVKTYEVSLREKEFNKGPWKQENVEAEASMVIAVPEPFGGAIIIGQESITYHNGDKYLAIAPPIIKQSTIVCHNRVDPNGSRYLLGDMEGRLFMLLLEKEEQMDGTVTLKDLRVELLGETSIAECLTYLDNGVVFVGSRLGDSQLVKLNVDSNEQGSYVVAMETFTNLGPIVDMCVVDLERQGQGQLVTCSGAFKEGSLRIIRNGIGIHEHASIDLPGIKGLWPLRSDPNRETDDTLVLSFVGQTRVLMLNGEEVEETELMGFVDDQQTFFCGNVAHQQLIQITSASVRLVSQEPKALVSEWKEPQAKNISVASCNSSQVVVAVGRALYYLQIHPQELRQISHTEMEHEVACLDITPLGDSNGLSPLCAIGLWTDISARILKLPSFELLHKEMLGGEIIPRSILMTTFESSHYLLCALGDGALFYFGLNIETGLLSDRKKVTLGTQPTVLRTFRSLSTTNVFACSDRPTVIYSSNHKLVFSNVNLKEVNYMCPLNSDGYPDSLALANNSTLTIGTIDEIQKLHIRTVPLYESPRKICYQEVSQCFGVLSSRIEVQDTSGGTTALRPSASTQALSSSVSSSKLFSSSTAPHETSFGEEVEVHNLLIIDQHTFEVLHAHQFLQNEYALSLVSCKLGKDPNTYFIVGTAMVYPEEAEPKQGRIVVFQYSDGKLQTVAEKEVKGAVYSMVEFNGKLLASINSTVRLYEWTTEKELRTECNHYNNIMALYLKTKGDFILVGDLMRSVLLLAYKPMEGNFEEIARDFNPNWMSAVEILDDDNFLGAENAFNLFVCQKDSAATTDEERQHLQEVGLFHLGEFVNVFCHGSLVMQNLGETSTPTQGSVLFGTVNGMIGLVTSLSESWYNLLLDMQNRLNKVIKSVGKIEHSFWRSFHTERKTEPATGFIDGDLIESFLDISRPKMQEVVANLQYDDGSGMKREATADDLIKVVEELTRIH

On to `C[C@@H]1Cc2c(ccc3[nH]ncc23)C(c2ccc(N3CCC4(CC3)CC(CN3CCN5c6ccc7c(c6OC[C@H]5C3)CN([C@H]3CCC(=O)NC3=O)C7=O)C4)nc2)N1CC(F)(F)F` (stereo in doubt) [Compound A26, (S)-3-((R)-7-((7-(5-((6R,8R)-8-methyl-7-(2,2,2-trifluoroethyl)-6,7,8,9-tetrahydro-3H-pyrazolo[4,3-f]isoquinolin-6-yl)pyridin-2-yl)-7-azaspiro[3.5]nonan-2-yl)methyl)-1-oxo-1,3,5,5a,6,7,8,9-octahydro-2H-pyrazino[1′,2′: 4,5][1,4]oxazino[2,3-e]isoindol-2-yl)piperidine-2,6-dione], for which the IC50 on ERα_LBD (GST) is < 10 nM; in the test with T47D cells, 10 to 50 nM; in the test with MCF-7 cells, 10 to 50 nM. Besides, the Dmax on ER [1] (setting [3]) was > 75%; on ER [2] (T47D cells, 16 hrs), > 75%. Moreover, the DC50 on ER [1] (MCF-7 cells, 16 hrs) is < 1 nM; on ER [2] (T47D cells, 16 hrs) it was < 1 nM.

For `COc1cc(N2CCC(CN3CCN4c5ccc6c(c5OC[C@H]4C3)CN(C3CCC(=O)NC3=O)C6=O)CC2)ccc1[C@@H]1c2ccc3[nH]ncc3c2C[C@@H](C)N1CC(F)F` (stereo partly drawn) [Compound A6, 3-((R)-7-((1-(4-((6S,8R)-7-(2,2-difluoroethyl)-8-methyl-6,7,8,9-tetrahydro-3H-pyrazolo[4,3-f]isoquinolin-6-yl)-3-methoxyphenyl)piperidin-4-yl)methyl)-1-oxo-1,3,5,5a,6,7,8,9-octahydro-2H-pyrazino[1′,2′:4,5][1,4]oxazino[2,3-e]isoindol-2-yl)piperidine-2,6-dione], the “ER MCF7 ICW Dmax (%)” value at ER [1] (MCF-7 cells, 16 hrs) is “B (“B”: >50% and <75%)”. Moreover, the DC50 was < 1 nM at ER [1] (MCF-7 cells, 16 hrs) and < 1 nM at ER [2] (T47D cells, 16 hrs). At ER [2] (T47D cells, 16 hrs), the “ER T47D ICW Dmax (%)” value was “B (“B”: >50% and <75%)”. Also, the IC50 was < 10 nM in the test on T47D cells, 50 to 500 nM on CRBN/DDB1 and < 10 nM in the test with MCF-7 cells.

`C[C@@H]1Cc2c(ccc3[nH]ncc23)[C@@H](c2ccc(N3CC4(CCC(CN5CCN6c7ccc8c(c7OC[C@H]6C5)CN([C@H]5CCC(=O)NC5=O)C8=O)CC4)C3)nc2)N1CC(F)(F)F` [Compound A17, (S)-3-((R)-7-((2-(5-((6S,8R)-8-methyl-7-(2,2,2-trifluoroethyl)-6,7,8,9-tetrahydro-3H-pyrazolo[4,3-f]isoquinolin-6-yl)pyridin-2-yl)-2-azaspiro[3.5]nonan-7-yl)methyl)-1-oxo-1,3,5,5a,6,7,8,9-octahydro-2H-pyrazino[1′,2′: 4,5][1,4]oxazino[2,3-e]isoindol-2-yl)piperidine-2,6-dione]: the IC50 was < 10 nM at ERα_LBD (GST), 10 to 50 nM in the test on T47D cells and > 50 nM with MCF-7 cells. Further, the Dmax was > 75% on ER [1] (setting [3]) and > 75% on ER [2] (T47D cells, 16 hrs). Further, the DC50 at ER [1] (MCF-7 cells, 16 hrs) is < 1 nM; at ER [2] (T47D cells, 16 hrs), < 1 nM.

As for `C[C@@H]1Cc2c(ccc3[nH]ncc23)[C@H](c2ccc(N3CCC(CN4CCN5c6ccc7c(c6OC[C@H]5C4)CN([C@H]4CCC(=O)NC4=O)C7=O)CC3)nc2)N1CC(F)(F)F` [Compound A19, (S)-3-((R)-7-((1-(5-((6R,8R)-8-methyl-7-(2,2,2-trifluoroethyl)-6,7,8,9-tetrahydro-3H-pyrazolo[4,3-f]isoquinolin-6-yl)pyridin-2-yl)piperidin-4-yl)methyl)-1-oxo-1,3,5,5a,6,7,8,9-octahydro-2H-pyrazino[1′,2′: 4,5][1,4]oxazino[2,3-e]isoindol-2-yl)piperidine-2,6-dione], the IC50 at ERα_LBD (GST), with T47D cells and in the test on MCF-7 cells was < 10 nM in each case. Further, the Dmax at ER [1] (setting [3]) was in the range of 50 to 75%; at ER [2] (T47D cells, 16 hrs) it was 50 to 75%. The half-maximal degradation concentration (DC50) on ER [1] (MCF-7 cells, 16 hrs) was < 1 nM; at ER [2] (T47D cells, 16 hrs), < 1 nM.

On to `C[C@@H]1Cc2c(ccc3[nH]ncc23)[C@H](c2ccc(N3CCC4(CC3)CC(CN3CCN5c6ccc7c(c6OC[C@H]5C3)CN([C@H]3CCC(=O)NC3=O)C7=O)CO4)nc2)N1CC(F)(F)F` (stereo partly drawn) [Compound A21, (3S)-3-((5aR)-7-((8-(5-((6R,8R)-8-methyl-7-(2,2,2-trifluoroethyl)-6,7,8,9-tetrahydro-3H-pyrazolo[4,3-f]isoquinolin-6-yl)pyridin-2-yl)-1-oxa-8-azaspiro[4.5]decan-3-yl)methyl)-1-oxo-1,3,5,5a,6,7,8,9-octahydro-2H-pyrazino[1′,2′: 4,5][1,4]oxazino[2,3-e]isoindol-2-yl)piperidine-2,6-dione], for which the results for the IC50 at ERα_LBD (GST), in the test with T47D cells and with MCF-7 cells were < 10 nM, 10 to 50 nM and < 10 nM, respectively. Further, the Dmax at ER [1] (setting [3]) is > 75%; at ER [2] (T47D cells, 16 hrs) it was > 75%. In addition, the DC50 is < 1 nM on ER [1] (MCF-7 cells, 16 hrs) and < 1 nM on ER [2] (T47D cells, 16 hrs).

For the compound `C[C@@H]1Cc2c(ccc3[nH]ncc23)[C@@H](c2ccc(N3CCC4(CC3)CC(CN3CCN5c6ccc7c(c6OC[C@H]5C3)CN([C@H]3CCC(=O)NC3=O)C7=O)CO4)nc2)N1CC(F)(F)F` (stereo partly drawn) [Compound A22, (3S)-3-((5aR)-7-((8-(5-((6S,8R)-8-methyl-7-(2,2,2-trifluoroethyl)-6,7,8,9-tetrahydro-3H-pyrazolo[4,3-f]isoquinolin-6-yl)pyridin-2-yl)-1-oxa-8-azaspiro[4.5]decan-3-yl)methyl)-1-oxo-1,3,5,5a,6,7,8,9-octahydro-2H-pyrazino[1′,2′:4,5][1,4]oxazino[2,3-e]isoindol-2-yl)piperidine-2,6-dione], the half-maximal inhibitory concentration (IC50) on ERα_LBD (GST) is < 10 nM; at CRBN/DDB1 it was 50 to 500 nM. For the same compound, the Dmax was in the range of 50 to 75% on ER [1] (MCF7, MCF-7 cells, 16 hrs, read-out: ER MCF7 ICW Dmax (%)) and 50 to 75% on ER [2] (T47D cells, 16 hrs). The DC50 is < 1 nM at ER [1] (MCF-7 cells, 16 hrs) and < 1 nM on ER [2] (T47D cells, 16 hrs).

Consider `C[C@@H]1Cc2c(ccc3[nH]ncc23)[C@@H](c2ccc(N3CCC(CN4CCN5c6cc7c(cc6OC[C@@H]5C4)C(=O)N([C@H]4CCC(=O)NC4=O)C7)CC3)nc2)N1CC(F)(F)F` [Compound A24, (S)-3-((S)-3-((1-(5-((6S,8R)-8-methyl-7-(2,2,2-trifluoroethyl)-6,7,8,9-tetrahydro-3H-pyrazolo[4,3-f]isoquinolin-6-yl)pyridin-2-yl)piperidin-4-yl)methyl)-8-oxo-1,2,3,4,4a,5,8,10-octahydro-9H-pyrazino[1′,2′: 4,5][1,4]oxazino[2,3-f]isoindol-9-yl)piperidine-2,6-dione], for which the values for the IC50 on ERα_LBD (GST), in the test on T47D cells and in the test on MCF-7 cells were < 10 nM, > 50 nM and > 50 nM, respectively. Further, the values for the greatest degradation seen (Dmax) at ER [1] (setting [3]) and at ER [2] were 50 to 75% and > 75%, respectively. In addition, the DC50 at ER [1] (MCF-7 cells, 16 hrs) is < 1 nM; on ER [2] (T47D cells, 16 hrs) it was < 1 nM.
